# Results as given in ChEMBL document CHEMBL1201862, “PubChem BioAssay data set” (2004).
# Active and inactive are the calls of the source.
# What was measured:
# [1] = NIH-3T3 fibroblast cytotoxicity, dose response, cytotoxicity control, cell-based, fluorescence, Alamar Blue, secondary assay (AID 2327); format: functional;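 note: NIH-3T3 mouse fibroblasts cultured with fluconazole at 8 µg/mL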
# [2] = target: T1, Aminopeptidase N (Plasmodium falciparum FcB1/Columbia, UniProt O96935); test: malaria alanyl aminopeptidase activity blockers – biochemical, fluorogenic H-Leu-NHMec substrate, 1536-well (AID 1445); parameters: species or system Plasmodium falciparum 3D7, 3D7
# T1 sequence (O96935 whole entry): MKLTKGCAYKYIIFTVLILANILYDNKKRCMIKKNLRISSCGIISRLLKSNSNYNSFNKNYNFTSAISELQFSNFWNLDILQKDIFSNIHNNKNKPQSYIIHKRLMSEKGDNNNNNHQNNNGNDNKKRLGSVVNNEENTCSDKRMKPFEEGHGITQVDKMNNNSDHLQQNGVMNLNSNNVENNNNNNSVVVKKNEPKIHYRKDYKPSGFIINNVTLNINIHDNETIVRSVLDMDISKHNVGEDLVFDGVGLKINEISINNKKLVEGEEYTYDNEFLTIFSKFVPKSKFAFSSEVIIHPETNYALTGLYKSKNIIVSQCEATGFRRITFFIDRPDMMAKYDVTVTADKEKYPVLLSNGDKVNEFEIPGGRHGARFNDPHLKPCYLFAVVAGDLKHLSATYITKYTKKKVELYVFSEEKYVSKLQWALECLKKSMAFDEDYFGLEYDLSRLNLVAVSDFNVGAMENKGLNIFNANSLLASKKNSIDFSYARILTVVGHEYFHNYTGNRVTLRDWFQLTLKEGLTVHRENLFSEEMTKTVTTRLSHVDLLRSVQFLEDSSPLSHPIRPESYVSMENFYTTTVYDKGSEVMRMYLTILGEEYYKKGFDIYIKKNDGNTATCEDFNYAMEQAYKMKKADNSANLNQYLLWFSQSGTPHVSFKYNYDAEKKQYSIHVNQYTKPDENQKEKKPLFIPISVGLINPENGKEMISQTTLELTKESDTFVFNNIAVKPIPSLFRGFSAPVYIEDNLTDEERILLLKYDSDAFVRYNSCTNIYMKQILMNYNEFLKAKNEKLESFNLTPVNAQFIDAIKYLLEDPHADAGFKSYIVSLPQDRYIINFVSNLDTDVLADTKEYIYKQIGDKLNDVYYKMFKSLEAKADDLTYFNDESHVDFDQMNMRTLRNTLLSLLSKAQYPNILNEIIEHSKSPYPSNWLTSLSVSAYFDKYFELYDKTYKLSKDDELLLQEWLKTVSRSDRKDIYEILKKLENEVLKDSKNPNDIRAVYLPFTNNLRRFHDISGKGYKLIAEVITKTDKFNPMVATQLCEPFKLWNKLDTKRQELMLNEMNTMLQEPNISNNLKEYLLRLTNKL
# [3] = fluconazole-exposed Candida albicans growth modulators – fluorescence, retest, confirmation (AID 2467); format: functional, cell-based
# [4] = target: Large T antigen (Simian virus 40, UniProt P03070); format: functional, Betapolyomavirus macacae;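 note: Confirmatory-stage PubChem screen for compounds that inhibit SV40 T antigen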
# [5] = target: T2, Mannose-6-phosphate isomerase (Homo sapiens, UniProt P34949); test: MPI enzyme activity inhibition – biochemical, fluorescence intensity, coupled assay, primary screen (AID 1209)
# T2 sequence (P34949 whole entry): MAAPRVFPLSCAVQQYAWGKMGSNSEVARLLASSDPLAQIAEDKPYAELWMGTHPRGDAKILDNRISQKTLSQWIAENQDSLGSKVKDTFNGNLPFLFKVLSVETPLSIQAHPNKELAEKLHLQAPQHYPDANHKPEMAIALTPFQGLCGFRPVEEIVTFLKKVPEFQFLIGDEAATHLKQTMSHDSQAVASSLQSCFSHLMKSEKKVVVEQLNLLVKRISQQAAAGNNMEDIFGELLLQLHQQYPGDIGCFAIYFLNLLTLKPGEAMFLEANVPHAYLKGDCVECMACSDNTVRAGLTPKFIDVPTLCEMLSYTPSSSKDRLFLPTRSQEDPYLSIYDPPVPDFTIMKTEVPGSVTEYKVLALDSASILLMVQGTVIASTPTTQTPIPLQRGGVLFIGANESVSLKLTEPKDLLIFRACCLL
# [6] = target: Induced myeloid leukemia cell differentiation protein Mcl-1 (Homo sapiens, UniProt Q07820); format: functional
# [7] = target: Albumin (Bos taurus, UniProt P02769); test: Counterscreen for inhibitors of T-cell receptor (TCR)-CD3 interaction: Fluorescence-based biochemical high throughput dose response assay to identify inhibitors of T-cell receptor (TCR)-CD3 interaction using a TAMRA-labeled BSA probe.; format: functional
# [8] = target: T3, Caspase-6 (Homo sapiens, UniProt P55212); test: inhibition of CASP6 peptide cleavage – biochemical, VEID-R110 fluorescence, cherry-pick, dose response (AID 720632)
# T3 sequence (P55212 whole entry): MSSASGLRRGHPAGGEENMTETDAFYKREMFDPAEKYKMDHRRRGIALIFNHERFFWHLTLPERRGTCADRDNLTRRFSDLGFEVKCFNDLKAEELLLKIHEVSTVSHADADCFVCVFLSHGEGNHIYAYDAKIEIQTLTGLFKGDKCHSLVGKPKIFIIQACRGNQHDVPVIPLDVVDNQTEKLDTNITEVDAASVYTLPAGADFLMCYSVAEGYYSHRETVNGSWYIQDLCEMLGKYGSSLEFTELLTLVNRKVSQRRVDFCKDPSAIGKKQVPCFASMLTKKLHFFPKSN
# [9] = target: E3 ubiquitin-protein ligase UHRF1 (Homo sapiens, UniProt Q96T88); test: Counterscreen for inhibitors of 5-meCpG-binding domain protein 2 (MBD2): TRFRET-based biochemical high throughput dose response assay to identify inhibitors of binding of ubiquitin-like with PHD and ring finger domains 1 (UHRF1) to methylated oligonucleotide.
# [10] = target: T4, Histone-lysine N-methyltransferase NSD2 (Homo sapiens, UniProt O96028); format: biochemical
# T4 sequence (O96028 whole entry): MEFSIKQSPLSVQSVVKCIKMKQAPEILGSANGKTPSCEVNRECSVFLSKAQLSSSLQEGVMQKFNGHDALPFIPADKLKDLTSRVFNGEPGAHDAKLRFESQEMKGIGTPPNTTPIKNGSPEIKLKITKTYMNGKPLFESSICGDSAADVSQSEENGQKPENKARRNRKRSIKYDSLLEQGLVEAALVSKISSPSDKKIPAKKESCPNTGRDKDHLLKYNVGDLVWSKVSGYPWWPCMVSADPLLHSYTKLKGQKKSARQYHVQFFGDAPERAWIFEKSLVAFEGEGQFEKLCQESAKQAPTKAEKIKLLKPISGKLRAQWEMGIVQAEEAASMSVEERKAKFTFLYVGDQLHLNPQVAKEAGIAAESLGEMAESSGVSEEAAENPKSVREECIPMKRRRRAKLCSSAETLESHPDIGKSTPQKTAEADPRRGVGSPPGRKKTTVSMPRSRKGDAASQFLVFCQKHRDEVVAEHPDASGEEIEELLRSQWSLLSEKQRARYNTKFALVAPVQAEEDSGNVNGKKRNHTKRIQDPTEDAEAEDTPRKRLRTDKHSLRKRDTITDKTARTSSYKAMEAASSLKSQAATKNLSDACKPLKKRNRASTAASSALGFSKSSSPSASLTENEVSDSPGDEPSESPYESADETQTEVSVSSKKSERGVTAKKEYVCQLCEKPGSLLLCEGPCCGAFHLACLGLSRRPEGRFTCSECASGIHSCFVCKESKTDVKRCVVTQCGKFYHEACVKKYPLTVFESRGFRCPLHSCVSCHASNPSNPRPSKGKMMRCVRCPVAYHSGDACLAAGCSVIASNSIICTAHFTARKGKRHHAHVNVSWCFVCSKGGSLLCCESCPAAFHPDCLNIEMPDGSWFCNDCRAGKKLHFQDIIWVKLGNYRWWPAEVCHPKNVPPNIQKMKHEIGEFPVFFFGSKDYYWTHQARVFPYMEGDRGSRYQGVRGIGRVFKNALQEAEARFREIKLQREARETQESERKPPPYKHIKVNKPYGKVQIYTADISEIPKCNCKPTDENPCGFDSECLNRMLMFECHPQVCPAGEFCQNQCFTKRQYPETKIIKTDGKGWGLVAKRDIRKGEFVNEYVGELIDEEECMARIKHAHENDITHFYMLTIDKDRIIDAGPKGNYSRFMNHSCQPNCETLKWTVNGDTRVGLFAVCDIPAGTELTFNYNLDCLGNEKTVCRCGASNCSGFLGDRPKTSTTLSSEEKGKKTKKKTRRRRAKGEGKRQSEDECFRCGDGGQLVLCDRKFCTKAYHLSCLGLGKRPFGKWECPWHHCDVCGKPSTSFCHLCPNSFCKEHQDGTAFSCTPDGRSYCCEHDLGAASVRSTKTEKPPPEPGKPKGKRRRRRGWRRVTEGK
# [11] = target: Paired box protein Pax-8 (Homo sapiens, UniProt Q06710); test: PAX8 transcriptional activity inhibition in RMG-I – RMG-I cells, luciferase, cherry-pick, dose response (AID 687027); format: functional, cell-based;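 note: luciferase reporter driven by Pax8 target thyroperoxidase promoter measured by SteadyGlo luminescence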
# [12] = viability loss in A549 lung cells – cell-based, 24 h, CellTiter-Glo luminescence, cherry-picks, cytotoxicity control, dose response (AID 1053115); format: functional; details: A549, 24 h
# [13] = OVCAR-3 cell viability loss – plate reader, dry powder samples, PAX8 inhibitor project, dose response (AID 743044); format: functional, cell-based
# [14] = general mammalian cell viability loss – activator set, cherry-pick, cytotoxicity control for miR-122 modulator project, dose response (AID 720690); format: functional, cell-based;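 note: HEK293T human cells scored for general mammalian cytotoxicity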
# [15] = OVCAR8 cell viability loss – plate reader, dry powder samples, PAX8 project, dose response (AID 743197); format: functional, cell-based; details: OVCAR-8
# [16] = lung carcinoma cell viability loss – CellTiter-Glo luminescence, dry powder, set 17, dose response (AID 1117284); format: functional, cell-based; details: A549
# [17] = inhibitors of TRPM1-promoter reporter in SK-MEL-5 – cell-based, luciferase, dry powder, set 9, MITF inhibitor project, dose response (AID 651588); format: functional
# [18] = MITF Orthogonal Assay: MALME3 CTG Assay Measured in Cell-Based System Using Plate Reader - 2084-04_Inhibitor_Dose_DryPowder_Activity_Set6.; format: functional; details: MALME-3
# [19] = growth inhibition of SK-MEL-5 melanoma cells – cell-based, CellTiter-Glo luminescence, dry powder, set 8, orthogonal assay for MITF inhibitor project, dose response (AID 651586); format: functional
# [20] = growth inhibition of MALME3 cells – cell-based, CellTiter-Glo luminescence, dry powder, set 5, orthogonal assay for MITF inhibitor project, dose response (AID 651584); format: functional; details: MALME-3
# [21] = MITF Orthogonal Assay: SK-MEL-5 CTG Assay Measured in Cell-Based System Using Plate Reader - 2084-02_Inhibitor_Dose_DryPowder_Activity_Set7.; format: functional
# [22] = MITF: Counter assay: A375 proliferation Measured in Cell-Based System Using Plate Reader - 2084-03_Inhibitor_Dose_DryPowder_Activity_Set8.; format: functional; details: A-375
# [23] = cytotoxicity in MITF-independent A375 cells – cell-based, CellTiter-Glo luminescence, dry powder, set 9, counter-screen for MITF modulator project, dose response (AID 651591); format: functional; details: A-375
# [24] = inhibitors of TRPM1-promoter reporter in SK-MEL-5 – cell-based, luciferase, dry powder, set 8, MITF inhibitor project, dose response (AID 624430); format: functional
# [25] = target: Protein Tat (Human immunodeficiency virus type 1 group M subtype B (isolate HXB2)(HIV-1), UniProt P04608); format: functional;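 note: tat binding to TAR RNA read out by fluorescence polarization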
# [26] = CellTiter-Glo luminescence survival assay, SW480 colon tumor line, concentration-response curve, half-maximal inhibitory concentration (AID 1117338); format: functional
# [27] = RKO cell viability reduction, dose response, CellTiter-Glo luminescence (AID 1117322); format: functional
# [28] = cytotoxicity toward HCT116 cells – cell-based, CellTiter-Glo luminescence, IC50, dose response (AID 1117332); format: functional; details: HCT-116
# [29] = SNU-C1 cell viability reduction, dose response, CellTiter-Glo luminescence (AID 1117323); format: functional, cell-based
# [30] = cytotoxicity toward Colo320 cells – cell-based, CellTiter-Glo luminescence, IC50, dose response (AID 1117334); format: functional; details: COLO 320
# [31] = cytotoxicity toward HT-29 cells – cell-based, CellTiter-Glo luminescence, IC50, dose response (AID 1117330); format: functional
# [32] = Reduced DLD-1 viability, concentration-response, CellTiter-Glo luminescence (AID 1117352); format: functional
# [33] = HCT116 cell viability decrease, GSK3B pretreatment – CellTiter-Glo, IC50, dose response (AID 1117339); format: functional; details: HCT-116
# Chain of Albumin (P02769 whole entry): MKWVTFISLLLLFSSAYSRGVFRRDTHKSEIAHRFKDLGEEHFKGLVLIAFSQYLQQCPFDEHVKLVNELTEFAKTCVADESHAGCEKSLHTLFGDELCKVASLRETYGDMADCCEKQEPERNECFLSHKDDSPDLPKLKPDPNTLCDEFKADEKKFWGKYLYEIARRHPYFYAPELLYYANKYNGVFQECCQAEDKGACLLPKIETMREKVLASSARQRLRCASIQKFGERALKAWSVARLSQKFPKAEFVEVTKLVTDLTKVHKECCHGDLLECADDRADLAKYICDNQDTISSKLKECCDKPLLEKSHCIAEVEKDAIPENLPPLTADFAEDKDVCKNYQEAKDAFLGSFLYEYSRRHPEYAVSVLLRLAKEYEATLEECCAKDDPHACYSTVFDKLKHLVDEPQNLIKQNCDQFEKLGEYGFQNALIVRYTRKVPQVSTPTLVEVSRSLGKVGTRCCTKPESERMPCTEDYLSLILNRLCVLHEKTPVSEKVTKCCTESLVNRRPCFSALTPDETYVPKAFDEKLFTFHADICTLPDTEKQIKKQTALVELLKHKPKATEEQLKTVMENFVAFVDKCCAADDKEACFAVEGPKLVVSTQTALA
# Chain of E3 ubiquitin-protein ligase UHRF1 (Q96T88 whole entry, the tested form may be a part): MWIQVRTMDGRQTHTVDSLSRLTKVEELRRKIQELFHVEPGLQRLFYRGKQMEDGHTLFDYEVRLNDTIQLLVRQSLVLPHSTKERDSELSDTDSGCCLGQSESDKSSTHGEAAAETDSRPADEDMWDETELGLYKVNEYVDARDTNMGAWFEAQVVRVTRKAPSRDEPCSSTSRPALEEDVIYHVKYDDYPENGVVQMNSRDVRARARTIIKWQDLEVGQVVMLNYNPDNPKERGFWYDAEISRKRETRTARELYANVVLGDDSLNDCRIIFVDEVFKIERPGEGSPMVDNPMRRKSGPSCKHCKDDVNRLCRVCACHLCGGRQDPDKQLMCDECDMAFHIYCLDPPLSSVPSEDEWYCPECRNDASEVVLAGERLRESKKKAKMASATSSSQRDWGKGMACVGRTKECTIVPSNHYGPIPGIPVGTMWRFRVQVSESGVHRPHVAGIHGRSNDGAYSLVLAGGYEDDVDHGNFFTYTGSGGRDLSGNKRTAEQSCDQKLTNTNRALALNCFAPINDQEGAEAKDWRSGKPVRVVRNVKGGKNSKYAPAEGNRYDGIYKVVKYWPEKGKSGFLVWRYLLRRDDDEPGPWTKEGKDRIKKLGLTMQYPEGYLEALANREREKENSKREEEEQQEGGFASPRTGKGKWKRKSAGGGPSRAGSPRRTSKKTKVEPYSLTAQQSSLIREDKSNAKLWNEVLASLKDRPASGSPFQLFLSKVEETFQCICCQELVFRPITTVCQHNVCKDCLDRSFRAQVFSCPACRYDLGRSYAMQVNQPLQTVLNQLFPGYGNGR
# Chain of Protein Tat (P04608 whole entry): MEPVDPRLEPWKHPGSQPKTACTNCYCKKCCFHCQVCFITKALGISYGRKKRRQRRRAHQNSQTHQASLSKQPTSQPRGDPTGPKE
# Chain of Induced myeloid leukemia cell differentiation protein Mcl-1 (Q07820 whole entry): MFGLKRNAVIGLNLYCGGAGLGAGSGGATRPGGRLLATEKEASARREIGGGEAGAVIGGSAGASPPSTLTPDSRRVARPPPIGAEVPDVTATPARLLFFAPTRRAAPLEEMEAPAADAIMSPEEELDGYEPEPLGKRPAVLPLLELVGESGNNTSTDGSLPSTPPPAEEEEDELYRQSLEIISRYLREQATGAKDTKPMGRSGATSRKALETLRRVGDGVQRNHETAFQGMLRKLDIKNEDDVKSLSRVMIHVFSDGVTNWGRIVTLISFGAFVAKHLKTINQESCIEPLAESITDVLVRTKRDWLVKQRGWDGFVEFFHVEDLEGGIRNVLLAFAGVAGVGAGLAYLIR
# Chain of Paired box protein Pax-8 (Q06710 whole entry): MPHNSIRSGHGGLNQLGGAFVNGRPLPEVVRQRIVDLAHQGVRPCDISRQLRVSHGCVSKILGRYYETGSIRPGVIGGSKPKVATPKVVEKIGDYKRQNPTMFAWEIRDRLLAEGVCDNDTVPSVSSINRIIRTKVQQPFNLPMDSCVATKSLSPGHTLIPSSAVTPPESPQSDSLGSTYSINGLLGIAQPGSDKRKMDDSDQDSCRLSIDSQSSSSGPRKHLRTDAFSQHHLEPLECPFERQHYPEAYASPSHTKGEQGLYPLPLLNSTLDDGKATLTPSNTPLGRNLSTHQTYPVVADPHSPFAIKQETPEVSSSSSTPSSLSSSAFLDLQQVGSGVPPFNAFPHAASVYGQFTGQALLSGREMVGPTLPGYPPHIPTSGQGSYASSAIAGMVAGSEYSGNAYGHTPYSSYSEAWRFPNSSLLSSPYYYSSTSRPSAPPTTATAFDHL
# Chain of Large T antigen (P03070 whole entry): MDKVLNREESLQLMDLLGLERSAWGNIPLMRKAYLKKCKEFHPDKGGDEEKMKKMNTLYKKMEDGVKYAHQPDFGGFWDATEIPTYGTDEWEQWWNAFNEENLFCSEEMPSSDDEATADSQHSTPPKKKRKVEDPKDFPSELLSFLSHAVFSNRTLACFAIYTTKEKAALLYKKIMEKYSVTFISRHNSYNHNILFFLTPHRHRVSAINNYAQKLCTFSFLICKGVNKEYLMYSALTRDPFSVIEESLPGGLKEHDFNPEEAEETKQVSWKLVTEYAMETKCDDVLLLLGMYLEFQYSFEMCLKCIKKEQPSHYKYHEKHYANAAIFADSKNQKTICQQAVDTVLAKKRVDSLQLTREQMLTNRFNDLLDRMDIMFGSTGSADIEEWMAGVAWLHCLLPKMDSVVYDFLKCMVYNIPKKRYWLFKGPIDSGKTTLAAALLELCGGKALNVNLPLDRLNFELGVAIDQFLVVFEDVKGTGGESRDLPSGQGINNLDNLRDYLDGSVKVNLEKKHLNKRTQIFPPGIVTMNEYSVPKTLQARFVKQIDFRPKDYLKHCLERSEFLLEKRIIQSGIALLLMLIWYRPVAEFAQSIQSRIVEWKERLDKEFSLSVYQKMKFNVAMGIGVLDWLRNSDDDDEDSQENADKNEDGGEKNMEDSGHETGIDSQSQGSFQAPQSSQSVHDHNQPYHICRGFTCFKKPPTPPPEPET
compound,measurement,setting,value
COc1ccc(/C=N/NC(=O)c2cc(O)c(O)c(O)c2)cc1Cn1cc([N+](=O)[O-])cn1,EC50,[1],30 µM (active)
same,IC50,[2],92.6 µM (active)
same,EC50,[3],3.25 µM (active)
same,IC50,[4],990 nM (active)
same,IC50,[5],12 µM (active)
same,IC50,[6],4.31 µM (active)
same,IC50,[7],> 94.1 µM (inactive)
same,AC50,[8],873 nM (active)
same,IC50,[9],> 43.8 µM (inactive)
same,AC50,[10],5.22 µM (active)
C[C@@H](O)C#Cc1ccc2c(c1)O[C@H](CN(C)Cc1ccc(-c3ccccc3)cc1)[C@@H](C)CN([C@@H](C)CO)S2(=O)=O,AC50,[11],4.84 µM (active)
same,AC50,[12],51.8 µM (active)
same,AC50,[13],50.2 µM (active)
same,AC50,[14],19.4 µM (active)
same,AC50,[15],> 70 µM (inactive)
same,AC50,[16],28.6 µM (active)
O=C1C(Nc2ccc(Br)cc2)=C(N2CCCCC2)C(=O)c2ccccc21,AC50,[17],15.3 µM (active)
same,AC50,[18],15.7 µM (active)
same,AC50,[19],> 70 µM (inactive)
same,AC50,[20],15.7 µM (active)
same,AC50,[21],4.57 µM (active)
same,AC50,[22],47.2 µM (active)
same,AC50,[23],32.8 µM (active)
same,AC50,[24],4.44 µM (active)
CCSC1=C(C#N)C(c2cccs2)/C(=C(\O)OC)C(C)=N1 (stereo not drawn),IC50,[25],> 100 µM (active)
CSc1ccc2c(c1)N(CCC1CCCCN1C)c1ccccc1S2 (stereo not drawn) [THIORIDAZINE],IC50,[26],3.71 µM (active)
same,IC50,[27],5.49 µM (inactive)
same,IC50,[28],> 20 µM (inactive)
same,IC50,[29],2.9 µM (active)
same,IC50,[30],7.92 µM (inactive)
same,IC50,[31],5.9 µM (inactive)
same,IC50,[32],> 20 µM (inactive)
same,IC50,[33],8.11 µM (inactive)
